# Test results taken from US5246931A, “Carbocyclic nucleoside analogs” (priority 1991, dated 1993).
# Several values for one entry are separate records, joined by “and”; a condition that tells them apart may be missing. Equal values may be shown once.
# Experiments:
# HSV-1 (E-377) = assay: Plaque reduction in Vero cells, HSV-1 (E-377); type: cell-based, Herpes simplex virus type 1; conditions: Human alphaherpesvirus 1, read-out: MIC50
# Description: (§1) A-2. Alternate Method for Evaluation of Compounds for Activity Against Herpes Simplex Virus Types 1 and 2
# (§2) Confluent Vero cell monolayers were infected with a dilution of stock virus which yielded approximately 100 plaque forming units (pfu) per well. After the adsorption period, the infected cell monolayers were treated in duplicate with serial dilutions of the test compound. Duplicate cell controls containing medium alone and virus controls containing medium and virus were run simultaneously with the test compound. After incubation for 3 to 4 days to allow for the development of visible, discrete plaques in the untreated, virus infected control cultures, the monolayers were fixed with formaldehyde and stained with crystal violet. Plaques visible to the unaided eye were counted and the mean number of plaques in the duplicate wells for each compound concentration tested and for the untreated, virus infected controls were determined. The concentration of test compound which reduced by 50% the mean number of plaques in the untreated, virus infected control cultures was then determined and expressed as the ID50.
# HSV-1 (123) = assay: Plaque reduction in Vero cells, HSV-1 (123); type: cell-based, Herpes simplex virus type 1; conditions: Human alphaherpesvirus 1, read-out: MIC50
# Description: as §1, §2
# HSV-2 = assay: Plaque reduction in Vero cells, HSV-2; type: cell-based, Herpes simplex virus type 2; conditions: Human alphaherpesvirus 2, HSV-2, Vero, read-out: MIC50
# Description: as §1, §2
# [1] = tested on: Herpesvirus 1 (strain 123); assay: In vivo activity against Herpesvirus 1 in mice (intraperitoneal challenge); parameters: species or system Swiss mice (CD-1)
# Description: E. Evaluation of Compounds for In Vivo Activity Against Herpesvirus 1 in Mice
# (§3) Four-week-old female outbred Swiss mice (CD-1, VAF+, Charles River Labs) were housed 5 per Microisolator® cage. Feed and water were supplied ad libitum. Fifteen mice were randomly assigned to each of the following treatment groups:
# (§4) Test compounds were diluted in 0.4% caboxymethylcellulose (CMC) prepared in phosphate buffered saline (PBS) at aconcentrations consistent with dosing at 0.1 ml per 10 g of body weight. Compounds were administered subcutaneously once daily for a total of 7 doses. Five mice in each treatment group served as uninfected toxicity controls. The remaining ten mice in each group were challenged intraperitoneally with an LD90 dose of the twelfth in vivo passage of Herpesvirus 1 (strain 123). Virus challenge was administered two hours after the first dose of compound was given. Mortality was monitored daily for 21 days. The mortality rates, average day of death, geometric mean time to death and virus rating were calculated for each treatment group.
# [2] = Toxicity in uninfected mice; type: in vivo, Swiss mice (CD-1); conditions: subcutaneous once daily, 7 doses
# Description: as §3, §4
# [3] = tested on: duck hepatitis B virus (DHBV); assay: Efficacy against hepatitis B virus in vivo in ducklings; parameters: species or system Pekino ducklings; conditions: for Serum DHBV DNA: after treatment (days 10-17)
# Description: F. Evaluation of Compounds for Efficacy Against Hepatitis B Virus In Vivo in Ducklings
# The test method is an adaptation of the method of Smee, et al., Antimicrob. Agents Chemotherap. 27 277 (1985). The serum level of duck hepatitis B virus (DHBV) DNA was monitored in 6 infected Pekino ducklings from age 6 days to age 27 days. Four ducklings were treated with 70 mg/kg/day IP, b.i.d. of the test compound as a 3 mg/ml solution in 0.9% aqueous NaCl on days 10-17. Two control ducklings were treated with 23 ml/kg/day IP, b.i.d. of 0.9% aqueous NaCl on days 10-17. The level of DHBV DNA in the duckling serum was measured daily.
# [4] = tested on: Varicella-Zoster Virus (clinical isolate DM625); assay: microbe, parasite or virus in culture; type: cell-based; conditions: Human alphaherpesvirus 3, Fibroblast, 120 h; read-out: MIC50
# [5] = tested on: Herpes simplex type 2 (HSV-2) strain MS; assay: CPE inhibition assay, HSV-2 (MS) in Vero cells
# [6] = tested on: Herpes simplex type 1 (HSV-1) strain E-377; assay: CPE inhibition assay, HSV-1 (E-377) in Vero cells; conditions: for VR (virus rating): HSV-1 (E-377), Vero
# [7] = tested on: human foreskin fibroblasts (HFF); assay: MTT cytotoxicity assay in human foreskin fibroblasts
# [8] = tested on: Herpes simplex type 1 (HSV-1) strain E-377; conditions: monkey, vero cells
# [9] = tested on: Herpes simplex type 2 (HSV-2) strain MS; conditions: monkey, vero cells
# [10] = Drug cytotoxicity in Vero host cells (CPE assay); conditions: monkey, vero cells
# [11] = tested on: African green monkey kidney (Vero) cells; assay: Drug cytotoxicity in Vero host cells (CPE assay); conditions: Vero
structure (smiles),measurement,setting,value
"Nc1nc2c(ncn2C2CC(CO)C2O)c(=O)[nH]1 (stereo not shown) [Example 42P, 9-(2'-hydroxy-3'-hydroxymethyl-1'-cyclobutyl)guanine]",IC50,HSV-1 (E-377),1 µg/mL
same,IC50,HSV-1 (123),3 µg/mL
same,IC50,HSV-2,1 µg/mL
"Nc1nc2c(ncn2C2CC(CO)C2CO)c(=O)[nH]1 (stereo not shown) [Example 1I, 9-(2',3'-Bis(hydroxymethyl)cyclobutyl)guanine]",IC50,HSV-1 (E-377),0.5 µg/mL
same,IC50,HSV-1 (123),1 µg/mL
same,IC50,HSV-2,1 µg/mL
same,VR (virus rating) = GMTD of experimental/GMTD of diluent treated control,[1]; 3.2 mg/kg,1.3
same,VR (virus rating) = GMTD of experimental/GMTD of diluent treated control,[1]; 10 mg/kg,1.6
same,VR (virus rating) = GMTD of experimental/GMTD of diluent treated control,[1]; 32 mg/kg,2.5
same,No. Dead/No. Uninfected,[2]; 3.2 mg/kg,0/5
same,No. Dead/No. Uninfected,[2]; 10 mg/kg,0/5
same,No. Dead/No. Uninfected,[2]; 32 mg/kg,0/3
same,Deaths of treated ducks,"[3]; DHBV-infected ducklings, 70 mg/kg/day IP b.i.d. on days 10-17","ducks 3 and 4 died on day 18 and day 26, respectively"
same,Serum DHBV DNA,"[3]; age 18 days, lines = ducks 1-4 in order",< 1 ng/mL
same,Serum DHBV DNA,"[3]; age 19 days, lines = ducks 1, 2, 4",< 1 ng/mL
same,Serum DHBV DNA,"[3]; age 20 days, lines = ducks 1, 2, 4",< 1 ng/mL
same,Serum DHBV DNA,"[3]; age 21 days, lines = ducks 1, 2, 4",< 1 ng/mL
same,IC50,[4],1.4 µg/mL
same,VR (virus rating),[5],4.1 and 3.4
same,VR (virus rating),[6],5.7 and 5.1
same,MTT Assay,[7]; 3.2 ug/ml,79 % of control
same,MTT Assay,[7]; 10 ug/ml,76 % of control
same,MTT Assay,[7]; 32 ug/ml,72 % of control
same,MTT Assay,[7]; 100 ug/ml,62 % of control
"Nc1nc2c(ncn2C2CC(CO)C2)c(=O)[nH]1 (stereo not shown) [Example 5G, 9-(3'-(Hydroxymethyl)cyclobutyl)guanine]","TI: therapeutic index, minimum cytotoxic drug concentration / ID50",[8],> 2.2
same,"TI: therapeutic index, minimum cytotoxic drug concentration / ID50",[9],> 1.0
same,VR (virus rating),[5],0.9
same,VR (virus rating),[6],2.1
same,IC50,"[6]; Human alphaherpesvirus 1, Vero, read-out: ID50: minimum drug concentration that inhibited the CPE by 50%",146 µg/mL
same,MCC,[10],> 320 µg/mL
same,MTC: minimum drug concentration causing any cytotoxicity,[11]; HSV-2 (MS) assay,> 320 µg/mL
"Nc1nc(Cl)c2ncn(C3CC(CO)C3CO)c2n1 (stereo not shown) [Example 1H, 3-(2'-Amino-6'-chloro-9'H-purin-9'-yl)-1,2-bis(hydroxymethyl)cyclobutane]",VR (virus rating),[5],0.6 and 0.5
same,VR (virus rating),[6],1.4
"Nc1ncnc2c1ncn2C1CC(CO)C1CO (stereo not shown) [Example 4C, 9-(2',3'-Bis(hydroxymethyl)cyclobutyl)adenine]","TI: therapeutic index, minimum cytotoxic drug concentration / ID50",[9],5.5
same,VR (virus rating),[5],1.8
same,MTC: minimum drug concentration causing any cytotoxicity,[11]; HSV-1 (E-377) assay,32 µg/mL
same,MTC: minimum drug concentration causing any cytotoxicity,[11]; HSV-2 (MS) assay,100 µg/mL
